Test results as given in patent US20030207891A1, “Combination therapy for modulating the human sexual response” (Zonagen, Inc., priority 1997, published 2003).
Counter-ions that a name gives are not always drawn.

Tests used:
[1] = system: corpus cavernosum; details: cited from earlier work; for erection after injection directly into the corpus cavernosum: hypodermic needle; for duration of erection after injection: intracavernosal, appropriate dose
[2] = system: male erectile dysfunction; details: 25 mg and 50 mg; cited from earlier work
[3] = system: impotentia erectionis; details: buccal, 100 I.U. three times a day for 14 days; cited from earlier work
[4] = system: spontaneous erections in men; assay: Effect of phentolamine and a phosphodiesterase inhibitor on spontaneous erections in men (Example 3); type: in vivo, human; details: alone, no sexual stimulation
Excerpt: Example 3 describes a study on the effect of phentolamine and a phosphodiesterase inhibitor on spontaneous erections in men.
Papaverine, a known non-specific phosphodiesterase inhibitor, in combination with phentolamine mesylate was compounded in a rapidly dissolving formulation as set out in Table 5 except that papaverine at the doses indicated below was substituted for Sildenafil.

[5] = system: impotent men; details: ingestion; cited from earlier work

SMILES	erection after injection directly into the corpus cavernosum [1]	other results
CCN(CC)CCOC(=O)C(Cc1cccc2ccccc12)CC1CCCO1 (mixture of isomers) [naftidrofuryl]	caused erection	–
CCCc1nn(C)c2c(=O)[nH]c(-c3cc(S(=O)(=O)N4CCN(C)CC4)ccc3OCC)nc12 [Sildenafil, 5-[2-ethoxy-5-(4-methylpiperazine-1-ylsulfonyl)phenyl]-1-methyl-3-proplyl-6,7-dihydro-1-H-pyrazolo[4,3-d]pyrimidin-7-one]	–	effectiveness at various doses [2]: effective
CN(C)CCCN1c2ccccc2CCc2ccccc21 [imipramine]	caused erection	–
CC[C@H](C)[C@@H]1NC(=O)[C@H](Cc2ccc(O)cc2)NC(=O)[C@@H](N)CSSC[C@@H](C(=O)N2CCC[C@H]2C(=O)N[C@@H](CC(C)C)C(=O)NCC(N)=O)NC(=O)[C@H](CC(N)=O)NC(=O)[C@H](CCC(N)=O)NC1=O [oxytocin]	–	improvement of impotentia erectionis, patients treated [3]: 12 of the 16
COc1ccc(Cc2nccc3cc(OC)c(OC)cc23)cc1OC [papaverine]	caused erection	duration of erection after injection [1]: unrelenting erection lasting for hours
CC(COc1ccccc1)N(CCCl)Cc1ccccc1 (centres unmarked) [phenoxybenzamine]	caused erection	duration of erection after injection [1]: unrelenting erection lasting for hours
Cc1ccc(N(CC2=NCCN2)c2cccc(O)c2)cc1 [phentolamine mesylate]	–	spontaneous erections [4]: did not exhibit spontaneous erections
Cc1ccc(N(CC2=NCCN2)c2cccc(O)c2)cc1 [phentolamine]	caused erection	–
CC(=O)Oc1cc(C(C)C)c(OCCN(C)C)cc1C [thymoxamine]	caused erection	–
COc1ccc(CCN(C)CCCC(C#N)(c2ccc(OC)c(OC)c2)C(C)C)cc1OC (centres unmarked) [verapamil]	caused erection	–
COC(=O)[C@@H]1[C@H]2C[C@H]3c4[nH]c5ccccc5c4CCN3C[C@@H]2CC[C@@H]1O [yohimbine]	–	subjective improvement in erectile ability, impotent men treated [5]: 38%; treated patients reporting complete satisfaction [5]: 5%
